Test results taken from paper PMC3189488 (British journal of haematology, 2010).

Assays:
[1] = target: T1, human HDAC8 (Homo sapiens, UniProt Q9BY41); test: HDAC enzyme assay in vitro, HDAC8; conditions: cell-free, purified enzyme
T1 sequence (Q9BY41 1-377): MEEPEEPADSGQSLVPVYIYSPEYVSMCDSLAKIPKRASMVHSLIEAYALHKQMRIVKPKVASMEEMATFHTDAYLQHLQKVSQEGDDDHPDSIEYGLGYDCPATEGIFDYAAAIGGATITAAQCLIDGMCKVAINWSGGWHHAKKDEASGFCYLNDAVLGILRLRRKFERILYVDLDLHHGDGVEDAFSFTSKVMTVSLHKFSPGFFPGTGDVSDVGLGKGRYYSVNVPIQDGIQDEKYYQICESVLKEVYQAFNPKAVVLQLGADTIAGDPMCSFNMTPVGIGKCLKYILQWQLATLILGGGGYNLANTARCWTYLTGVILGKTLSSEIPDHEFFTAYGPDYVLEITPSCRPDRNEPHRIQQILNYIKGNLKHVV

[2] = system: KM-H2 cells; test: Apoptosis by annexin-V/propidium iodide FACS, KM-H2; type: cell-based, human; conditions: 1 μmol/l, 48 h
[3] = target: human HDAC3 with human NcoR2 (Homo sapiens, UniProt O15379); test: HDAC enzyme assay in vitro, HDAC3; conditions: cell-free, purified enzyme
[4] = system: HD-LM2 cells; test: Apoptosis by annexin-V/propidium iodide FACS, HD-LM2; type: cell-based, human; conditions: 1 μmol/l, 48 h
[5] = system: L428 cells; test: Apoptosis by annexin-V/propidium iodide FACS, L428; type: cell-based, human; conditions: 1 μmol/l, 48 h
[6] = system: NF-kB; test: p65 NF-kB nuclear translocation by Western blot; type: cell-based, human; conditions: bortezomib 20 nmol/l with MGCD0103 1 μmol/l, 24 h
[7] = system: HL cell lines; test: Combination of MGCD0103 with proteasome inhibitors in HL cell lines; type: cell-based, human; conditions: 48 h, combination index <1 indicates synergy
[8] = system: HDAC6; conditions: ref Fournel et al, 2008; Gloghini et al, 2009; cited from earlier work
[9] = system: TNF-α; test: TNF-α secretion in HL cell supernatants by ELISA; type: cell-based, human; conditions: within 24 h of incubation
[10] = target: T2, human HDAC6 (Homo sapiens, UniProt Q9UBN7); test: HDAC enzyme assay in vitro, HDAC6; type: biochemical; conditions: cell-free, purified enzyme; Fig S1
T2 sequence (Q9UBN7 1-1215): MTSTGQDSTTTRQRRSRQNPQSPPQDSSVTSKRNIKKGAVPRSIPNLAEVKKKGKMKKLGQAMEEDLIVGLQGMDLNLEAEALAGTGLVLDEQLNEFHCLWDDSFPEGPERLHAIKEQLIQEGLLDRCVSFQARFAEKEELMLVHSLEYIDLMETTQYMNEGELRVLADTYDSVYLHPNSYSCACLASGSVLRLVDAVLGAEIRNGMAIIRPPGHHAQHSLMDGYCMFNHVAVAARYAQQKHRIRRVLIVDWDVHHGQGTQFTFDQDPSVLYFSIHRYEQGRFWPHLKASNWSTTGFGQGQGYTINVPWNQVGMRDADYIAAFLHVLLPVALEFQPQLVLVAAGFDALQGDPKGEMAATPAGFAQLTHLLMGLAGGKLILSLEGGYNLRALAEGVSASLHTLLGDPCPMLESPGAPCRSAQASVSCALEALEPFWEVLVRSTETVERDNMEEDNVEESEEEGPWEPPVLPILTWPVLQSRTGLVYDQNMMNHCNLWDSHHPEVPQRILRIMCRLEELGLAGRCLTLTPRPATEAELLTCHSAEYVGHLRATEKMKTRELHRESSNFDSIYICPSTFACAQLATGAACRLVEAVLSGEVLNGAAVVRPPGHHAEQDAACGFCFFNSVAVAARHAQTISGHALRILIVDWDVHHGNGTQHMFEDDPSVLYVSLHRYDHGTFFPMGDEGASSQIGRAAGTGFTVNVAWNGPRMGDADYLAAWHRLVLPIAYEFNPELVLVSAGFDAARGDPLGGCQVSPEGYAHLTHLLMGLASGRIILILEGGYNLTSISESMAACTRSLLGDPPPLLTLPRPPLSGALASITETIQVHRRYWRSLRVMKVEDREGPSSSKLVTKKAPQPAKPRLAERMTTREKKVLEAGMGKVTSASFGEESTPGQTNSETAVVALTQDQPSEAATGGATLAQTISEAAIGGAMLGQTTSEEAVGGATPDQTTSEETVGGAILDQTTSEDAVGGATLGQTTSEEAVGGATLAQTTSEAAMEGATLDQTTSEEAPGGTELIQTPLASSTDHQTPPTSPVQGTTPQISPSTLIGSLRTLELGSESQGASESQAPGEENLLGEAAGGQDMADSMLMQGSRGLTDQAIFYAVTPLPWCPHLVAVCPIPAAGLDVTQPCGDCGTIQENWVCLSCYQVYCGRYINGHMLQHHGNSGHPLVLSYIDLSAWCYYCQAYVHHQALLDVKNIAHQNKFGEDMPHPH

[11] = system: HDACs 1-10; test: HDAC enzyme assay in vitro, purified HDAC 1-10 isoforms; conditions: positive control

Sequence of human HDAC3 with human NcoR2 (O15379 whole entry): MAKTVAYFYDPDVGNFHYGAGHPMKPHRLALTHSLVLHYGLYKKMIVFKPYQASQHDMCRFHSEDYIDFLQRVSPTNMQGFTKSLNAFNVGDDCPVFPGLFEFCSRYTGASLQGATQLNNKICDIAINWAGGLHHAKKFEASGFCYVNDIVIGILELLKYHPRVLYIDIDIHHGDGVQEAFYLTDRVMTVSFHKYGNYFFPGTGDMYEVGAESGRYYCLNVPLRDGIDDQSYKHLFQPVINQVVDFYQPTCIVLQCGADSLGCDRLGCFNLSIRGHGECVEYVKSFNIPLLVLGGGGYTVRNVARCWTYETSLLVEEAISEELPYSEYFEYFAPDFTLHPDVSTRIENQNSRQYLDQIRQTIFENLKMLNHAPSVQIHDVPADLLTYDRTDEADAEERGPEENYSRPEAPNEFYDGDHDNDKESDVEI
Sequence of human HDAC3 with human NcoR2 (Q9Y618 395-489 partner limits assumed): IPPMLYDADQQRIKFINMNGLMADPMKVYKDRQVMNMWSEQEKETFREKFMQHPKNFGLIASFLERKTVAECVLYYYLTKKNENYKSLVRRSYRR

Row | Molecule | inhibition of HDAC8 activity [1] | percentage of apoptotic cells [2] [%] | percentage of apoptotic cells [4] [%] | percentage of apoptotic cells [5] [%] | combination effect with MGCD0103 [7] | further results
1 | O=C(CCCCCCC(=O)Nc1ccccc1)NO [vorinostat, suberoylanilide hydroxamic] | had activity | 13.8 | 21 | 15 |  | inhibition of HDAC3 activity [3]: had activity
2 | CC(C)C[C@H](NC(=O)[C@H](Cc1ccccc1)NC(=O)c1cnccn1)B(O)O [bortezomib] |  |  |  |  | synergistic antiproliferative effect | effect on MGCD0103-induced NF-kB activation [6]: inhibited MGCD0103-induced NF-kB activation
3 | Nc1ccccc1NC(=O)c1ccc(CNc2nccc(-c3cccnc3)n2)cc1 [MGCD0103] | also inhibited the activity | 69 | 59 | 72 |  | effect on HDAC6 [8]: no effect; TNF-α levels in supernatants [9]: profoundly increased; effect on HDAC6 activity [10]: no effect
4 | Trichostatin A [Trichostatin-A] |  |  |  |  |  | potency against HDACs 1-10 compared with MGCD0103 and vorinostat [11]: higher potency
5 | C[C@@]12OC(=O)[C@]1([C@@H](O)[C@@H]1C=CCCC1)NC(=O)[C@@H]2CCCl [NPI0052] |  |  |  |  | synergistic activity | 
